Consider one substance from patent US20130130991A1, “USE OF A PEPTIDE ENHANCING THE ABILITY OF RADIATION THERAPY TO KILL CANCER CELLS” (UNIVERSITE DE LAUSANNE, priority 2010, published 2013).

“Also recorded” adds a separate entry of the source. Where only a bound is given, the exact number is not on record here.

One assay concerns HCT116p53+/+ cells. Put plainly: Clonogenic assay (CFA) after γ-irradiation, HCT116 p53+/+. In kind it is cell-based. The following applies: 20 μM peptide, γ radiation 0-8 Gray, colonies counted after two weeks. The method, then: (§1) One hundred HeLa cells or 500 HCT116p53^+/+ or 500 HCT116p53^−/− cells were seeded in 8.5 cm plates and after 24 hours later treated or not with TAT or TAT-RasGAP317-326 (20 μM) prior exposure to the various doses of γ radiation (0, 1, 2, 4, 6 or 8 Gray).
(§2) After two weeks, the culture medium was removed and the plates were gently washed with water. A crystal violet solution (0.5% crystal violet in 25% methanol) was then added to stain colonies and gently washed out with water. The number of colonies was then counted.
(§3) The clonogenic formation assay (CFA) was performed using cancer cell lines (HCT116 with or without p53) (FIG. 1A-B) and non-tumorigenic HaCaT cells (FIG. 1C) that were subjected to the various doses of γ radiation (0, 1, 2, or 4, Gray), in the presence or in absence of TAT-RasGAP317-326 (20 μM). The number of colonies was determined two weeks after irradiation.

The test system of the next assay is HCT116p53−/− cells. As to the kind of experiment: Clonogenic assay (CFA) after γ-irradiation, HCT116 p53-/-. In kind it is cell-based. The following applies: 20 μM peptide, γ radiation 0-8 Gray, colonies counted after two weeks. The method, then:
as §1, §2, §3

Another assay deals with HCT116 xenografts. Put plainly: Radio-sensitization in mice bearing HCT116 xenografts. It is filed as in vivo. The following applies: 1 mg/kg i.p. every day for 10 days, γ-irradiation 3 Gy 1 hour after injection, nu/nu mice. An excerpt:
(§4) Immunodeficient mice bearing subcutaneous tumors allow easy access of the tumors to defined fractionated irradiation doses with minimal effect on surrounding tissues and without the need of anesthesia. This latter point is important because anesthesia can modify the response to radiation therapy (Denekamp, 1979) and anesthesia is generally not used in patients during radiotherapy.
(§5) HCT116 tumor cells, lacking or not p53, were grafted onto the back of female Swiss homozygous nu/nu mice leading to the development of subcutaneous tumors. Then, the immunodeficient mice bearing subcutaneous tumors were divided into four experimental groups as follows:
(§6) 1) Intraperitoneal PBS injections and no irradiation. 2) Intraperitoneal TAT-RasGAP317-326 injections (every day, 1 mg peptide per kg of mouse in 300 μl PBS) and no irradiation. 3) Intraperitoneal PBS injection and γ-irradiation (3 Gy). 4) Intraperitoneal TAT-RasGAP317-326 injections and γ-irradiation.
(§7) The treatments (i.e. peptide injections followed by irradiation) were performed every day for 10 days without interruption. γ-irradiation was performed 1 hour after the peptide injection. The size of the tumors was monitored 3 times a week. #: mice were sacrificed when the tumors reached a volume of about 800 mm^3.

The subject of another assay is tumor growth. The following applies: cited from earlier work.
Another assay relates to tumor cells. The following applies: cited from earlier work.
In the next assay the test system is HaCaT cells. As to the kind of experiment: Clonogenic assay (CFA) after γ-irradiation, non-tumorigenic HaCaT. It is filed as cell-based. The following applies: 20 μM peptide, γ radiation 0, 1, 2 or 4 Gray, colonies after two weeks. On the procedure:
as §2, §3

In a further assay the test system is HCT116 p53−/− tumors. As to the kind of experiment: Radio-sensitization in mice bearing HCT116 p53-/- xenografts. In kind it is in vivo. The following applies: 1 mg/kg i.p. every day for 10 days, γ-irradiation 3 Gy 1 hour after injection, nu/nu mice.
Description: as §4, §5, §6, §7

For the substance “TAT-RasGAP317-326: HIV-TAT48-57 peptide conjugated to RasGAP317-326 (WMWVTNLRTD) with two glycine residues as spacer; cell permeable peptide (GRKKRRQRRRGGWMWVTNLRTD)”, the “efficacy of γ-irradiation-mediated cell killing (number of colonies)” value with HCT116p53+/+ cells and in the assay with HCT116p53−/− cells was “increases the efficacy of γ-irradiation-mediated cell killing” each time. Moreover, the “tumor growth / tumor volume of irradiated tumors” value with HCT116 xenografts was “significant growth delay and reduction in tumor volume”. For the same substance, the “ability of cisplatin and other genotoxins to inhibit tumor growth” value with tumor growth (combined with genotoxins) is “increases the ability of cisplatin and other genotoxins to inhibit tumor growth”. The “dose still exerting genotoxin-sensitization on tumor growth, relative to lethal doses” value in the assay on tumor growth (mouse, in vivo) is > 100 fold below the lethal doses. Also, the “sensitization of non-tumor cells to genotoxin-induced apoptosis” value with tumor cells (non-tumor cells) was “nor does it sensitize non-tumor cells”. Also, the “apoptosis of tumor cells by the peptide alone” value in the assay on tumor cells (peptide by itself) is on record as “does not by itself modulate apoptosis of tumor cells”. Moreover, the “sensitization of tumor cells to genotoxin-induced death” value in the assay on tumor cells (tumor cells with genotoxin) is on record as “specifically sensitizes tumor cells to genotoxin-induced death”. The “γ-radiation-sensitivity of non-cancer cells (number of colonies)” value with HaCaT cells is on record as “not in a non-cancer cell line; also recorded: no influence on the γ-radiation-sensitivity”. Moreover, in the assay on HCT116 p53−/− tumors, the “growth of irradiated HCT116 p53−/− tumors” value is “very efficiently hampered”.
